By IC50 is commonly meant the point on the concentration scale where inhibition reaches its midpoint. Higher therefore signals lower potency. The inhibition is how much of the control response was suppressed.

Data set [1] has as its target T1, GR (Homo sapiens, UniProt P04150).
T1 construct: expressed in transfected cells; host or cells: CHO-K1
T1 sequence (P04150 1-777): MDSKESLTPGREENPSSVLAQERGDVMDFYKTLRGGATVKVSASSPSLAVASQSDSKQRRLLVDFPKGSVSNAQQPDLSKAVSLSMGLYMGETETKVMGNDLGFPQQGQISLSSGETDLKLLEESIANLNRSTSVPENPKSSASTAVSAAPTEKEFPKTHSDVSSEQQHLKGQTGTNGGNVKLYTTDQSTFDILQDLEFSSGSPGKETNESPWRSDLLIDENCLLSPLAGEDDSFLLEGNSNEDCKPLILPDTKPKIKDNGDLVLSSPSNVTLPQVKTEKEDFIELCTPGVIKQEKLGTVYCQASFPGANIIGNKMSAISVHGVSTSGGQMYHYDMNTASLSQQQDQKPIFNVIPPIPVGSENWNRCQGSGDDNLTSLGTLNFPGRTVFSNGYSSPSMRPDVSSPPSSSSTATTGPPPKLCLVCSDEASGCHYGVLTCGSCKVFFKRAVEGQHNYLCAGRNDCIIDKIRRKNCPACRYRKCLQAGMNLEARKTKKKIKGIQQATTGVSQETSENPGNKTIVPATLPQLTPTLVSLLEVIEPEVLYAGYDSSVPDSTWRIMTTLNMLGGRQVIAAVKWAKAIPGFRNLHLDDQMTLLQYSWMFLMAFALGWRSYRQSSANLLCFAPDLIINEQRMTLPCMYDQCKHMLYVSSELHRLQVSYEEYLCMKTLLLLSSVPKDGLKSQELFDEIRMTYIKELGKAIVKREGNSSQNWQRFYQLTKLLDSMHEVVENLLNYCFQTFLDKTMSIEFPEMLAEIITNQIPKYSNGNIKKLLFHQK
Kind of data set: In Vitro GR Luciferase Reporter Assay (antagonist mode, CHO-K1-GR-MMTV-Luc reporter cells). Format: cell-based. The note with it: antagonist mode, 10 nM Dexamethasone. A digest of the protocol: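 Antagonist mode: compounds (8 serial 1:5 dilutions) added to GR-MMTV-luciferase CHO-K1 reporter cells co-exposed to 10 nM dexamethasone final, in phenol red-free DMEM plus 10% CSS. After roughly 18-24 h at 37° C, OneGlo luminescence read and IC50 calculated.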

Data set [2] has as its target T2, CYP2C8 (Homo sapiens, UniProt P10632).
T2 construct: Pooled human microsomes were obtained from Sekisui XenoTech, KS; tissue Sekisui XenoTech, KS; host or cells: pooled human liver microsomes
T2 sequence (P10632 1-490): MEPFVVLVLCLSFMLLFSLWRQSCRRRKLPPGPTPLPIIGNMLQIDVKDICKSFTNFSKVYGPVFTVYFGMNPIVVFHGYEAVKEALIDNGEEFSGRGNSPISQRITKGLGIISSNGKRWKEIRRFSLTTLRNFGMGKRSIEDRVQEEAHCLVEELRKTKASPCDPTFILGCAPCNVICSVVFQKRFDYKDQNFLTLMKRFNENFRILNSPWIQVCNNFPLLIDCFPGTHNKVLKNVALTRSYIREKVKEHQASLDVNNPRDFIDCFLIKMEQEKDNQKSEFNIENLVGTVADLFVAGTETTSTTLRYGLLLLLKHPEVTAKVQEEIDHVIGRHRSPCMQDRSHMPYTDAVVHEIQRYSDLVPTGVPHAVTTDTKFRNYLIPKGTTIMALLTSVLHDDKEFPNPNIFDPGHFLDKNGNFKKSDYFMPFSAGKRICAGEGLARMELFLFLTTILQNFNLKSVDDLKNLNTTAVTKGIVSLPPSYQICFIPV
Kind of data set: CYP Inhibition Assay (CYP2C8, human liver microsomes, paclitaxel substrate). The note with it: pH 7.4; pooled human liver microsomes 0.1 mg/mL, probe substrate paclitaxel. Format: in vitro ADME. A digest of the protocol: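 CYP2C8 activity read as 6α-hydroxypaclitaxel formation by LC-MS/MS, with % inhibition versus vehicle control. Reactions ran 5 min at 37° C, pH 7.4 phosphate buffer, 0.1 mg/mL pooled human liver microsomes, 1 mM NADPH, duplicate wells.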

Structures are written as SMILES. Some results are limits rather than exact numbers.

For `Cn1cnc(S(=O)(=O)N(C2CC(F)(F)C2)[C@H]2CCC3=Cc4c(cnn4-c4ccc(F)cc4)C[C@]3(C(=O)c3cc(Cl)ccn3)C2)n1` [Example 355, N-((4aS,6S)-4a-(4-chloropicolinoyl)-1-(4-fluorophenyl)-4,4a,5,6,7,8-hexahydro-1H-benzo[f]indazol-6-yl)-N-(3,3-difluorocyclobutyl)-1-methyl-1H-1,2,4-triazole-3-sulfonamide], the IC50 in data set [1] is at most 100 nM. The same compound gave an inhibition at 5 min in data set [2] of at most 25%.
For `CCN([C@H]1CCC2=Cc3c(cnn3-c3ccc(F)cc3)C[C@]2(C(=O)c2ncc(C(F)(F)F)s2)C1)S(=O)(=O)c1ncn(C)n1` [Example 356, N-ethyl-N-((4aS,6S)-1-(4-fluorophenyl)-4a-(5-(trifluoromethyl)thiazole-2-carbonyl)-4,4a,5,6,7,8-hexahydro-1H-benzo[f]indazol-6-yl)-1-methyl-1H-1,2,4-triazole-3-sulfonamide] the same measures were at most 100 nM and 25 to 50%.
For `CCN([C@H]1CCC2=Cc3c(cnn3-c3ccc(F)cc3)C[C@]2(C(=O)c2cc(C(F)(F)F)ccn2)C1)S(=O)(=O)c1ncn(C)n1` [Example 357, N-ethyl-N-((4aS,6S)-1-(4-fluorophenyl)-4a-(4-(trifluoromethyl)picolinoyl)-4,4a,5,6,7,8-hexahydro-1H-benzo[f]indazol-6-yl)-1-methyl-1H-1,2,4-triazole-3-sulfonamide] the same measures were at most 100 nM and at most 25%.
`CCN([C@H]1CCC2=Cc3c(cnn3-c3ccc(F)cc3)C[C@]2(C(=O)c2cc(F)ccn2)C1)S(=O)(=O)c1ncn(C)n1` [Example 358, N-ethyl-N-((4aS,6S)-1-(4-fluorophenyl)-4a-(4-fluoropicolinoyl)-4,4a,5,6,7,8-hexahydro-1H-benzo[f]indazol-6-yl)-1-methyl-1H-1,2,4-triazole-3-sulfonamide] displayed an IC50 in data set [1] of at most 100 nM. The inhibition at 5 min in data set [2] was in the range of 25 to 50%.
`CCN([C@H]1CCC2=Cc3c(cnn3-c3ccc(F)cc3)C[C@]2(C(=O)c2cc(Cl)ccn2)C1)S(=O)(=O)c1ncn(C)n1` [Example 359, N-((4aS,6S)-4a-(4-chloropicolinoyl)-1-(4-fluorophenyl)-4,4a,5,6,7,8-hexahydro-1H-benzo[f]indazol-6-yl)-N-ethyl-1-methyl-1H-1,2,4-triazole-3-sulfonamide] gave a half-inhibitory concentration (IC50) in data set [1] of at most 100 nM. In data set [2], this compound registered an inhibition at 5 min of 25 to 50%.
Turning to `Cn1cnc(S(=O)(=O)N(C2CC2)[C@H]2CCC3=Cc4c(cnn4-c4ccc(F)cc4)C[C@]3(C(=O)c3cc(Cl)ccn3)C2)c1` [Example 363, N-((4aS,6S)-4a-(4-chloropicolinoyl)-1-(4-fluorophenyl)-4,4a,5,6,7,8-hexahydro-1H-benzo[f]indazol-6-yl)-N-cyclopropyl-1-methyl-1H-imidazole-4-sulfonamide], the half-inhibitory concentration (IC50) in data set [1] is at most 100 nM. In data set [2], this compound registered an inhibition at 5 min of 25 to 50%.
`Cn1ccc(S(=O)(=O)N([C@H]2CCC3=Cc4c(cnn4-c4ccc(F)cc4)C[C@]3(C(=O)c3ncc(C(F)(F)F)s3)C2)[C@H]2C[C@](O)(C(F)(F)F)C2)n1` [Example 366, N-((4aS,6S)-1-(4-fluorophenyl)-4a-(5-(trifluoromethyl)thiazole-2-carbonyl)-4,4a,5,6,7,8-hexahydro-1H-benzo[f]indazol-6-yl)-N-((1s,3R)-3-hydroxy-3-(trifluoromethyl)cyclobutyl)-1-methyl-1H-pyrazole-3-sulfonamide] had a half-inhibitory concentration (IC50) in data set [1] of at most 100 nM. The inhibition at 5 min in data set [2] was at most 25%.
The matching figures for `Cn1cnc(S(=O)(=O)N(CC(F)(F)F)[C@H]2CCC3=Cc4c(cnn4-c4ccc(F)cc4)C[C@]3(C(=O)c3ncc(C(F)(F)F)s3)C2)n1` [Example 367, N-((4aS,6S)-1-(4-fluorophenyl)-4a-(5-(trifluoromethyl)thiazole-2-carbonyl)-4,4a,5,6,7,8-hexahydro-1H-benzo[f]indazol-6-yl)-1-methyl-N-(2,2,2-trifluoroethyl)-1H-1,2,4-triazole-3-sulfonamide]: at most 100 nM and 25 to 50%.
For the compound `Cn1ccc(S(=O)(=O)N([C@H]2CCC3=Cc4c(cnn4-c4ccc(F)cc4)C[C@]3(C(=O)c3ncc(C(F)(F)F)s3)C2)[C@H]2C[C@@](O)(C(F)(F)F)C2)n1` [Example 368, N-((4aS,6S)-1-(4-fluorophenyl)-4a-(5-(trifluoromethyl)thiazole-2-carbonyl)-4,4a,5,6,7,8-hexahydro-1H-benzo[f]indazol-6-yl)-N-((1r,3S)-3-hydroxy-3-(trifluoromethyl)cyclobutyl)-1-methyl-1H-pyrazole-3-sulfonamide], the half-inhibitory concentration (IC50) in data set [1] is at most 100 nM. In addition, the inhibition at 5 min in data set [2] lay within 25 to 50%.
The matching figures for `CO[C@]1(C)C[C@H](N([C@H]2CCC3=Cc4c(cnn4-c4ccc(F)cc4)C[C@]3(C(=O)c3cc(F)ccn3)C2)S(=O)(=O)c2ccn(C)n2)C1` [Example 371, N-((4aS,6S)-1-(4-fluorophenyl)-4a-(4-fluoropicolinoyl)-4,4a,5,6,7,8-hexahydro-1H-benzo[f]indazol-6-yl)-N-((1s,3R)-3-methoxy-3-methylcyclobutyl)-1-methyl-1H-pyrazole-3-sulfonamide]: at most 100 nM and 25 to 50%.
The matching figures for `Cn1cc(S(=O)(=O)N(CC(F)F)[C@H]2CCC3=Cc4c(cnn4-c4ccc(F)cc4)C[C@]3(C(=O)c3cc(F)ccn3)C2)nn1` [Example 373, N-(2,2-difluoroethyl)-N-((4aS,6S)-1-(4-fluorophenyl)-4a-(4-fluoropicolinoyl)-4,4a,5,6,7,8-hexahydro-1H-benzo[f]indazol-6-yl)-1-methyl-1H-1,2,3-triazole-4-sulfonamide]: at most 100 nM and 50 to 75%.
The matching figures for `Cn1cnc(S(=O)(=O)[C@H]2CCC3=Cc4c(cnn4-c4ccc(F)cc4)C[C@]3(C(=O)c3ccc(C(F)(F)F)cn3)C2)n1` [Example 374, ((4aS,6S)-1-(4-fluorophenyl)-6-((1-methyl-1H-1,2,4-triazol-3-yl)sulfonyl)-1,4,5,6,7,8-hexahydro-4aH-benzo[f]indazol-4a-yl)(5-(trifluoromethyl)pyridin-2-yl)methanone]: at most 100 nM and at most 25%.
As to `Cn1cnc(S(=O)(=O)CC2CCC3=Cc4c(cnn4-c4ccc(F)cc4)C[C@]3(C(=O)c3cc(C(F)(F)F)ccn3)C2)n1` (stereo partly drawn) [Example 377, ((4aR)-1-(4-fluorophenyl)-6-(((1-methyl-1H-1,2,4-triazol-3-yl)sulfonyl)methyl)-1,4,5,6,7,8-hexahydro-4aH-benzo[f]indazol-4a-yl)(4-(trifluoromethyl)pyridin-2-yl)methanone], the half-maximal inhibitory concentration (IC50) in data set [1] is at most 100 nM. The compound also showed an inhibition at 5 min in data set [2] of 25 to 50%.

(Values after patent publication US20210122730A1, “GLUCOCORTICOID RECEPTOR MODULATORS” (ORIC Pharmaceuticals, Inc., priority 2017, published 2021).)
